For four compounds, inhibition and IC50 results are on record in ChEMBL document CHEMBL4152312, “Identification of fused pyrimidines as interleukin 17 secretion inhibitors” (Eur J Med Chem, 2018).

Test [1] concerns the target Phosphatidylinositol 4,5-bisphosphate 3-kinase catalytic subunit gamma isoform (Homo sapiens) (UniProt P48736). In words: Inhibition of recombinant full length human His-tagged PI3K p110ggamma at 500 nM by Z-LYTE assay relative to control.
Test [2] has as its target Tyrosine-protein kinase Lyn (Homo sapiens) (UniProt P07948). The test is described as follows: Inhibition of recombinant human full-length N-terminal His-tagged LYN-B expressed in baculovirus expression system at 500 nM by Z-LYTE assay relative to control.
Test [3] deals with Rho-associated protein kinase 2 (Homo sapiens) (UniProt O75116). In words: Inhibition of recombinant human N-terminal GST-tagged ROCK2 cytoplasmic domain (1 to 552 residues) expressed in baculovirus expression system at 500 nM by Z-LYTE assay relative to control.
Test [4] concerns the target T1, Mitogen-activated protein kinase 12 (Homo sapiens) (UniProt P53778).
T1 sequence (whole entry): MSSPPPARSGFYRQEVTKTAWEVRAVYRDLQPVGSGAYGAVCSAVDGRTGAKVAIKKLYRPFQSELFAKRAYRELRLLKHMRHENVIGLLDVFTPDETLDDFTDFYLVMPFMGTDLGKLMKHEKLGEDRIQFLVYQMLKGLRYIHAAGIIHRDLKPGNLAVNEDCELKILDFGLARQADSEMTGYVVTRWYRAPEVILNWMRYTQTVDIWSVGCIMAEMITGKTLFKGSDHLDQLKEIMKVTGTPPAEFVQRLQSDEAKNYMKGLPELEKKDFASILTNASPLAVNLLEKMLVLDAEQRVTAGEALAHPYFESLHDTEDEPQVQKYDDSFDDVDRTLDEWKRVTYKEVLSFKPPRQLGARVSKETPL
In words: Inhibition of recombinant human full length His-tagged p38-gamma expressed in baculovirus expression system at 500 nM by Z-LYTE assay relative to control.

Test [5] addresses Mast/stem cell growth factor receptor Kit (Homo sapiens) (UniProt P10721). The test is described as follows: Inhibition of recombinant human His-tagged KIT cytoplasmic domain (544 to 976 residues) expressed in baculovirus expression system at 500 nM by Z-LYTE assay relative to control.
The target of test [6] is Glycogen synthase kinase-3 alpha (Homo sapiens) (UniProt P49840). In words: Inhibition of GSK3alpha (unknown origin) at 500 nM by Z-LYTE assay relative to control.
Test [7] has as its target Tyrosine-protein kinase Lyn (Homo sapiens) (UniProt P07948). The test is described as follows: Inhibition of recombinant human full-length N-terminal GST-tagged LYN-A expressed in insect cells at 500 nM by Z-LYTE assay relative to control.
The target of test [8] is PI3-kinase p110-delta/p85-alpha (Homo sapiens) (UniProt P27986+O00329). The test is described as follows: Inhibition of PI3K p110delta/p85alpha (unknown origin) at 500 nM by Z-LYTE assay relative to control. The class given is protein-complex assay.
In test [9] the target is Serine/threonine-protein kinase pim-2 (Homo sapiens) (UniProt Q9P1W9). In words: Inhibition of recombinant full length human GST-tagged PIM2 expressed in baculovirus expression system at 500 nM by Z-LYTE assay relative to control.
The target in test [10] is Protein kinase C theta type (Homo sapiens) (UniProt Q04759). In words: Inhibition of recombinant full length human His-tagged PKCtheta expressed in baculovirus expression system at 500 nM by Z-LYTE assay relative to control.
The target of test [11] is Macrophage colony-stimulating factor 1 receptor (Homo sapiens) (UniProt P07333). In words: Inhibition of recombinant human His-tagged CSF1R (538 to 910 residues) expressed in baculovirus expression system at 500 nM by Z-LYTE assay relative to control.
The target in test [12] is T2, Dual specificity mitogen-activated protein kinase kinase 6 (Homo sapiens) (UniProt P52564).
T2 sequence (whole entry): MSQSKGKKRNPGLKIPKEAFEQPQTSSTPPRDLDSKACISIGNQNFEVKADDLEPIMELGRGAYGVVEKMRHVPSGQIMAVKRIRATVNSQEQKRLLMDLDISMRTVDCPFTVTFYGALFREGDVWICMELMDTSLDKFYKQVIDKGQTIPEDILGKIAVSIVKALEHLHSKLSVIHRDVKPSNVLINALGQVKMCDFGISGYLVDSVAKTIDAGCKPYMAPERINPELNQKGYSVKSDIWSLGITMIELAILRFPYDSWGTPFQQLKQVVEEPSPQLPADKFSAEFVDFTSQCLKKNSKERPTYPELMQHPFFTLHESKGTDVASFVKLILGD
The test is described as follows: Inhibition of recombinant human full length His-tagged MKK6 expressed in baculovirus expression system at 500 nM by Z-LYTE assay relative to control.

For test [13], the target named is Serine/threonine-protein kinase pim-1 (Homo sapiens) (UniProt P11309). The test is described as follows: Inhibition of recombinant full length human His-tagged PIM1 expressed in baculovirus expression system at 500 nM by Z-LYTE assay relative to control.
The target in test [14] is Tyrosine-protein kinase JAK1 (Homo sapiens) (UniProt P23458). The test is described as follows: Inhibition of recombinant human GST-tagged JAK1 cytoplasmic domain expressed in baculovirus expression system at 500 nM by Z-LYTE assay relative to control.
Test [15] concerns the target Receptor tyrosine-protein kinase erbB-4 (Homo sapiens) (UniProt Q15303). The test is described as follows: Inhibition of recombinant humans GST-tagged ERBB4 cytoplasmic domain expressed in baculovirus expression system at 500 nM by Z-LYTE assay relative to control.
Test [16] deals with Epidermal growth factor receptor (Homo sapiens) (UniProt P00533). In words: Inhibition of recombinant human GST-tagged wild-type EGFR cytoplasmic domain (668 to 1210 residues) expressed in baculovirus expression system at 500 nM by Z-LYTE assay relative to control.
The target in test [17] is Serine/threonine-protein kinase PAK 2 (Homo sapiens) (UniProt Q13177). The test is described as follows: Inhibition of recombinant human full length GST-tagged PAK2 expressed in baculovirus expression system at 500 nM by Z-LYTE assay relative to control.
Test [18] has as its target Calcium/calmodulin-dependent protein kinase type 1G (Homo sapiens) (UniProt Q96NX5). The test is described as follows: Inhibition of recombinant human full length GST-tagged CAMK1G expressed in insect cells at 500 nM by Z-LYTE assay relative to control.
In test [19] the target is Protein kinase C alpha type (Homo sapiens) (UniProt P17252). In words: Inhibition of recombinant human full length untagged PKCalpha expressed in baculovirus expression system at 500 nM by Z-LYTE assay relative to control.
Test [20] has as its target Rho-associated protein kinase 1 (Homo sapiens) (UniProt Q13464). The test is described as follows: Inhibition of recombinant human GST-tagged ROCK1 cytoplasmic domain expressed in baculovirus expression system at 500 nM by Z-LYTE assay relative to control.
For another test, the system named is PBMC. In words: Inhibition of IL-17 secretion in anti-human CD3 antibody/anti-human CD28 antibody/IL23-stimulated human PBMC after 48 hrs by ELISA. It counts as functional, cell-based. A general note: ELISA stands for enzyme-linked immunosorbent assay.
In test [21] the target is Proto-oncogene tyrosine-protein kinase ROS (Homo sapiens) (UniProt P08922). In words: Inhibition of recombinant human GST-tagged ROS1 cytoplasmic domain (1883 to 2347 residues) expressed in baculovirus expression system at 500 nM by Z-LYTE assay relative to control.
Test [22] has as its target Receptor tyrosine-protein kinase erbB-2 (Homo sapiens) (UniProt P04626). In words: Inhibition of recombinant human His-tagged ERBB2 cytoplasmic domain expressed in baculovirus expression system at 500 nM by Z-LYTE assay relative to control.

Chain of Calcium/calmodulin-dependent protein kinase type 1G (Homo sapiens) (Q96NX5 whole entry): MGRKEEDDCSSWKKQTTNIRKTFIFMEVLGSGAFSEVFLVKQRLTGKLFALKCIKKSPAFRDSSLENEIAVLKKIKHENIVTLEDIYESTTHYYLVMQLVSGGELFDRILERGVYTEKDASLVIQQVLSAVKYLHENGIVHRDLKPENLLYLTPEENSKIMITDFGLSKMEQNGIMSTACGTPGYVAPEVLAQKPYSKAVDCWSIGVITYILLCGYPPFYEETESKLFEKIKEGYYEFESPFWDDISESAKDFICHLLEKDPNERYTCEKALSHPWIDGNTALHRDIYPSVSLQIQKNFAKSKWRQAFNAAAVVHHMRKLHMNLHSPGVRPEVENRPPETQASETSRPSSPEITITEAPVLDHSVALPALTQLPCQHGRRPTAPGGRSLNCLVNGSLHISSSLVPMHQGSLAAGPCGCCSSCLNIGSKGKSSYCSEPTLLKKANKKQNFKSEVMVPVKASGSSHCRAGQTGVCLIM
Chain of Protein kinase C theta type (Homo sapiens) (Q04759 whole entry, looked up, the tested form may be a part): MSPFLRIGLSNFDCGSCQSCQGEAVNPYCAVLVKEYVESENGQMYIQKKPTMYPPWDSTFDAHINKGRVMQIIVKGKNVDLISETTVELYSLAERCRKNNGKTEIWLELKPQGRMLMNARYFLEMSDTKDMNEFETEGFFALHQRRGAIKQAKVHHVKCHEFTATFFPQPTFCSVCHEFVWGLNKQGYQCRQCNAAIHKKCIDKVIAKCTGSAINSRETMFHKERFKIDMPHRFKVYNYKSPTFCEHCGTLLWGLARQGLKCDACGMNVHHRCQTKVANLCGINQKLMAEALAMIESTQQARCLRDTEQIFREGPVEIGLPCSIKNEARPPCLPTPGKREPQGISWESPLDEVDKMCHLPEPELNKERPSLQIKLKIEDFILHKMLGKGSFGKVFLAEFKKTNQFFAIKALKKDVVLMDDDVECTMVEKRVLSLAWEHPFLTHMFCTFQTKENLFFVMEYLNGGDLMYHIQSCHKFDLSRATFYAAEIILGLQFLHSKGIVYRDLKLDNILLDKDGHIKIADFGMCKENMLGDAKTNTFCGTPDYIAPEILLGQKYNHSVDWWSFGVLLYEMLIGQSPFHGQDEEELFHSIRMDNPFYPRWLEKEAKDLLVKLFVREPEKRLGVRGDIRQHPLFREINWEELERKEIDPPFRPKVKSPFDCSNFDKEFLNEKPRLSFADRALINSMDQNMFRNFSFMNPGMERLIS
Chain of Serine/threonine-protein kinase pim-1 (Homo sapiens) (P11309 whole entry, looked up, the tested form may be a part): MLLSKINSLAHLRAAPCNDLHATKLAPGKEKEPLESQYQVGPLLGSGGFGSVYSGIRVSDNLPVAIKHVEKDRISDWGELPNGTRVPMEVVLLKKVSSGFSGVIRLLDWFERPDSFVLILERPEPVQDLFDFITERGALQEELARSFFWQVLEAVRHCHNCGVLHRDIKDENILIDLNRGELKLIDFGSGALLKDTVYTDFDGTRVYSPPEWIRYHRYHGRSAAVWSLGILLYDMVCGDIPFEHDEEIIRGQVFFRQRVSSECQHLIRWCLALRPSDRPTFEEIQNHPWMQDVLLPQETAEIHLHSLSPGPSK
Chain of Epidermal growth factor receptor (Homo sapiens) (P00533 whole entry, the tested form may be a part): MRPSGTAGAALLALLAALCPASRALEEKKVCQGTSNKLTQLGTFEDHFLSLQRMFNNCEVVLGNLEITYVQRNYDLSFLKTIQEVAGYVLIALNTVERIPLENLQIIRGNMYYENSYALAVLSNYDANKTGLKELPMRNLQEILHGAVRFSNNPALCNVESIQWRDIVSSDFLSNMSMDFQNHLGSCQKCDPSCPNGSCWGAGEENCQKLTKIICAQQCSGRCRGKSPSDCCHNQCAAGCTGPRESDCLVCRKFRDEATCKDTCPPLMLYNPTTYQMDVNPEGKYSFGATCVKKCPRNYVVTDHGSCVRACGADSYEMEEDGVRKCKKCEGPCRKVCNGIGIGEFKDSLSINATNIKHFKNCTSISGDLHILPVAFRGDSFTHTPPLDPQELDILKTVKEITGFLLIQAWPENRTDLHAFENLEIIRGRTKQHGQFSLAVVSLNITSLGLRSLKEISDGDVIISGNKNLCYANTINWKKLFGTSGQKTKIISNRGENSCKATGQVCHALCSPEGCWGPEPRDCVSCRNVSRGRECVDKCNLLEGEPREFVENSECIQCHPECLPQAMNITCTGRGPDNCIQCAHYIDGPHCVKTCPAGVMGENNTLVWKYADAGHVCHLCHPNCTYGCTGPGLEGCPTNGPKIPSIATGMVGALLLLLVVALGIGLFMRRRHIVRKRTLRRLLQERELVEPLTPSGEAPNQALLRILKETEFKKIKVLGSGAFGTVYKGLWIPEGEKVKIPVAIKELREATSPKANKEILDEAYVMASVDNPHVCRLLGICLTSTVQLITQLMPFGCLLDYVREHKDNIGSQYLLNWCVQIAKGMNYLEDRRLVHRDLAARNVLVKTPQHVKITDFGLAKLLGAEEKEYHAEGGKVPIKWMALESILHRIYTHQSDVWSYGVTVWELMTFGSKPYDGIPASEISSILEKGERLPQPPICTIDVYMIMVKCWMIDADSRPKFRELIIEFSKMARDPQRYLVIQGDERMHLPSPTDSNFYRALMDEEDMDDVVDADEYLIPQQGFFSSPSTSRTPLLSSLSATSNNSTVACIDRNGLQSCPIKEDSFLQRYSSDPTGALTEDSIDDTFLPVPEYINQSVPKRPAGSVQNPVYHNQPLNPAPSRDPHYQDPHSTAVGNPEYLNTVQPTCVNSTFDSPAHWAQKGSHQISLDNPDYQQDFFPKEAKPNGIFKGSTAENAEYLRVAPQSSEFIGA
Chain of Serine/threonine-protein kinase pim-2 (Homo sapiens) (Q9P1W9 whole entry, looked up): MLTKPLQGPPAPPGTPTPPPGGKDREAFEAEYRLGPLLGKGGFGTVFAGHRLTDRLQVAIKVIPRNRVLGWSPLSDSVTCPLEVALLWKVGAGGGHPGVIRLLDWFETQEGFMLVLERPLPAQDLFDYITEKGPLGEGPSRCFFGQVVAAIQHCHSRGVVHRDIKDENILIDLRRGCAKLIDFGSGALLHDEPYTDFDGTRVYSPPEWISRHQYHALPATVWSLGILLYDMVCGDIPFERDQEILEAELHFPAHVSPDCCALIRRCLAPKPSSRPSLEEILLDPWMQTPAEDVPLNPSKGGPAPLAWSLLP
Chain of Glycogen synthase kinase-3 alpha (Homo sapiens) (P49840 2-483 limits assumed): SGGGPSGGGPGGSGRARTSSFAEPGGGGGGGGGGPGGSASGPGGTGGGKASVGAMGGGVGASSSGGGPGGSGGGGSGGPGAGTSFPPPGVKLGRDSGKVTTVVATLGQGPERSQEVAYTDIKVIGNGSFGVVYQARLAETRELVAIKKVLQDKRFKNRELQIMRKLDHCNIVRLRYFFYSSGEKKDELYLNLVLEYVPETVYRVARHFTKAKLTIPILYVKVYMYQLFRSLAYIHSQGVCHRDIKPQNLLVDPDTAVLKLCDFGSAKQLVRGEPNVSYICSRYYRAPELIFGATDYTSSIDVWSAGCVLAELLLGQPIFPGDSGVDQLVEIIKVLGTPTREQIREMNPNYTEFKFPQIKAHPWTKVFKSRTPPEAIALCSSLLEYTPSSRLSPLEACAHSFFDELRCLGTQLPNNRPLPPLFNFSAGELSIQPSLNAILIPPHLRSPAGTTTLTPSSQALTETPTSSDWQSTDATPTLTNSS
Chain of Tyrosine-protein kinase Lyn (Homo sapiens) (P07948 2-512 limits assumed): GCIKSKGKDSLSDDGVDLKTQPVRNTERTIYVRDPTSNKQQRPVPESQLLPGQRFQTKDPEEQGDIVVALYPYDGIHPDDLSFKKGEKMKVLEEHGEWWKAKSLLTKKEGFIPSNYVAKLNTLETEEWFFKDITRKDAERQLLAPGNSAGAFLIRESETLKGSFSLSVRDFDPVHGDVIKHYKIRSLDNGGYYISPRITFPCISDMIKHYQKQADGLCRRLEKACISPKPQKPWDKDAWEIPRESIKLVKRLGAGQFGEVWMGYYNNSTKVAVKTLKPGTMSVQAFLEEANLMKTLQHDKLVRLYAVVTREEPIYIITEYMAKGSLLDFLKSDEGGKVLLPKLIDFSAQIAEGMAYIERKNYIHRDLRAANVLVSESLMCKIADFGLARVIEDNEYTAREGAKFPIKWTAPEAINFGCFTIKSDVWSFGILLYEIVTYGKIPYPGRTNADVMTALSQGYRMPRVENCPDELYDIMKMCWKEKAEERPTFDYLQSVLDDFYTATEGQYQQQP

One may read the inhibition as the drop in the measured response relative to a control, in per cent. One may read the IC50 as the concentration that gives 50% inhibition. In the case of `OC[C@@H](Nc1ncnc2sc(-c3ccc(O)cc3)cc12)c1ccccc1`, the inhibition in test [1] is -2%; in [2], 7%; in test [3] it was 2%; in test [4], 0%; in [5] it was 15%; in test [6] it was 9%. Besides, the inhibition in test [7] was 21%; in test [8] it was 0%; in test [9], 3%; in test [10], -7%; in [11], 31%; in [12], 11%. For the same compound, the inhibition in test [13] is 11%; in test [14], -2%; in test [15], 20%; in test [16], 99%; in test [17], 5%; in [18], 1%. Moreover, the inhibition turned out to be 0% in test [19], 4% in [20], 23% in test [21] and 30% in [22]. In the test with PBMC, this compound registered an IC50 of 2800 nM.

Consider `CCC(=O)Nc1ccc(-c2c[nH]c3ncnc(N[C@H](C)c4ccccc4)c23)cc1`, for which the inhibition in [1] was 1%; in test [2] it was 27%; in [3], 6%; in test [4], 10%; in [5], -3%; in [6] it was 14%. Besides, the inhibition was determined as 14% in test [7]; 13% in test [8]; 8% in test [9]; 6% in test [10]; 21% in [11]; 8% in [12]. The inhibition stood at 1% in test [13]; 3% in test [14]; 12% in test [15]; 98% in test [16]; 5% in test [17]; 1% in test [18]. For the same compound, the inhibition in [19] came out at 21%; in test [20] it was 3%; in test [21], 22%; in test [22], 41%. For the same compound, inhibition in the test with PBMC was half-maximal at 2100 nM (IC50).

In the case of `CN(C)CCn1cc(-c2cccc(O)c2)c2c(N)ncnc21`, the inhibition in test [1] was 5%; in test [2] it was 49%; in [3], 33%; in test [4], 10%; in test [5] it was -2%; in test [6] it was 3%. Besides, the inhibition in [7] is 28%; in test [9] it was 5%; in test [10], 8%; in [11], 39%; in [12] it was 5%; in test [13], 9%. The inhibition in test [14] was 3%; in test [15], 3%; in test [16] it was 4%; in test [17], 6%; in test [18], 1%; in test [19], 15%. For the same compound, the inhibition worked out at 17% in test [20], 15% in test [21] and 5% in [22]. For the same compound, in the test on PBMC, the half-inhibitory concentration (IC50) came to 1200 nM.

In the case of `OCc1ccc(-c2cc3c(N[C@H](CO)c4ccccc4)ncnc3[nH]2)cc1`, the inhibition in test [1] is 4%; in test [2] it was 70%; in test [3] it was 6%; in test [4], 12%; in [5], -1%; in test [6], 4%. Besides, the inhibition in [7] is 74%; in test [8] it was 2%; in [9] it was 10%; in test [10], -2%; in test [11], 96%; in [12], 3%. The inhibition was 7% in test [13]; -1% in [14]; 71% in [15]; 5% in test [17]; 0% in [18]; 6% in test [19]. Moreover, the inhibition in [20] is -1%; in test [21] it was 71%; in test [22] it was 48%. For the same compound, the half-maximal inhibitory concentration (IC50) in the test with PBMC stood at 1400 nM.
